# Target: T1, CCR-3 (Homo sapiens, UniProt P51677)
# T1 sequence (P51677 1-355): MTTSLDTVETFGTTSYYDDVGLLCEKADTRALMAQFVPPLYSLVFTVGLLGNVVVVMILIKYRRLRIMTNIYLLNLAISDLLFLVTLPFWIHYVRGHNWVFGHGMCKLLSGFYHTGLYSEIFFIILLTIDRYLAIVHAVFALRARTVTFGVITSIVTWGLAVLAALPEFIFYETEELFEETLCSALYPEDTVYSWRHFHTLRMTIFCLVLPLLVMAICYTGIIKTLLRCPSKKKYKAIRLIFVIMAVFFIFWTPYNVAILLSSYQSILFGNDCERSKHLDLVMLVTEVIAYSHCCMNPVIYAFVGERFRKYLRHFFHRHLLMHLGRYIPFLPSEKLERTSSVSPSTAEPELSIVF
# Experiment: Eotaxin-induced chemotaxis of CCR-3 transfectant cells (CCR3/U937)
# Type: cell-based
# Set-up: expressed in transfected cells; host or cells: U937
# Conditions: 10 µM test compound; eotaxin 1 x 10^-9 M; CCR3/U937 cells (Table 3a)
# Experimental: The inhibitory activity of the compounds against eotaxin-induced chemotaxis was determined by measuring the inhibition of migration of CCR-3 transfectant cells (CCR3/U937), using a minor modification of the method described by Ohashi, H. et al., Int Arch Allergy Immunol. […] The chemotaxis assay was performed in a 24-well culture plate. Human eotaxin suspended in assay medium was added to the wells at 1 x 10^-9 M along with test compounds at various concentrations. For a positive control, eotaxin was added to the wells without a test compound, and for a negative control, neither eotaxin nor a test compound was added to the wells. Chemotaxicell (Kurabo Co., Ltd.) having 5 micrometers pore size were inserted into each well and 100 micro liters of CCR-3 transfectant cells suspension were added to the top chamber. The plates were incubated at 37 °C for 1 hour. After incubation, migrated cells in lower wells were diluted and counted by particle size distribution analyzer (CDP-500, Sysmex Co., Ltd.).
row,Compound,Chemotaxis Assay 10 µM (inhibition %)
1,O=C(O)CCCN(CCCNC(=O)Nc1ccc(Br)cc1)CCC(c1ccccc1)c1ccccc1 [Compound 76],44%
2,CC(c1ccccc1)N(CCCNC(=O)Nc1ccc(Br)cc1)CCCC(=O)O (centres unmarked) [Compound 77],76%
3,O=C(O)CCCN(CCCNC(=O)Nc1ccc(Br)cc1)CCc1ccc(Cl)cc1 [Compound 79],78%
4,O=C(O)CCCN(CCCNC(=O)Nc1ccccc1)CCc1ccc(Cl)cc1 [Compound 80],65%
5,O=C(O)CCCN(CCCNC(=O)Nc1cccc(Cl)c1)C1CCCc2ccccc21 (centres unmarked) [Compound 82],100%
6,Cc1cccc(NC(=O)NCCCN(CCCC(=O)O)C2CCCc3ccccc32)c1 (centres unmarked) [Compound 83],100%
7,O=C(O)CCCN(CCCNC(=O)Nc1ccc(Cl)c(C(F)(F)F)c1)C1CCCc2ccccc21 (centres unmarked) [Compound 84],100%
8,O=C(O)CCCN(CCCNC(=O)Nc1ccccc1-c1ccccc1)C1CCCc2ccccc21 (centres unmarked) [Compound 85],19%
9,COc1ccc(NC(=O)NCCCN(CCCC(=O)O)C2CCCc3ccccc32)c(OC)c1 (centres unmarked) [Compound 86],37%
10,O=C(O)CCCN(CCCNC(=O)Nc1ccccc1)C1CCCc2ccccc21 (centres unmarked) [Compound 87],97%
11,COc1ccc(NC(=O)NCCCN(CCCC(=O)O)C2CCCc3ccccc32)cc1 (centres unmarked) [Compound 88],100%
12,O=C(O)CCCN(CCCNC(=O)Nc1ccc(Oc2ccccc2)cc1)C1CCCc2ccccc21 (centres unmarked) [Compound 89],89%
13,O=C(O)CCCN(CCCNC(=O)Nc1cccc2ccccc12)C1CCCc2ccccc21 (centres unmarked) [Compound 90],100%
14,"COC(=O)CCCN(CCCNC(=O)Nc1ccc(Br)cc1)C1CCc2ccccc21 (centres unmarked) [Compound 172, Methyl 4-[[3-(4-bromophenylureido)propyl](1-indanyl)amino]burylate]",100%
15,"O=C(O)CCCN(CCCNC(=O)Nc1ccc(Br)cc1)C1CCc2ccccc21 (centres unmarked) [Compound 173, 4-[[3-(4-Bromopbenylureido)propyl](1-indanyl)amino]butanoic acid]",100%
16,COC(=O)CCCN(CCCNC(=O)Nc1ccc(Br)cc1)C1Cc2ccccc2C1 [Compound 174],100%
17,O=C(O)CCCN(CCCNC(=O)Nc1ccc(Br)cc1)C1Cc2ccccc2C1 [Compound 175],100%
18,COC(=O)CCCN(CCCNC(=O)Nc1ccc(Br)cc1)C1CCc2ccccc21 (centres unmarked) [Compound 176],75%
19,O=C(O)CCCN(CCCNC(=O)Nc1ccc(Br)cc1)C1CCc2ccccc21 (centres unmarked) [Compound 177],89%
20,"COC(=O)CCCN(CCCNC(=O)Nc1ccc(Br)cc1)[C@@H]1CCc2ccccc21 [Compound 178, Methyl 4-[[3-(4-bromophenylureido)propyl][(1R)-1-indanyl]amino]butylate]",100%
21,"COC(=O)CCCN(CCCNC(=O)Nc1ccc(Br)cc1)[C@@H]1CCCc2ccccc21 [Compound 180, Methyl 4-[[3-(4-bromophenylureido)propyl][(1R)-1,2,3,4-tetrahydro-1-naphthyl]amino]burylate]",100%
22,"CCOC(=O)CCCN(CCCNC(=O)Nc1ccc(Br)cc1)C1CCCc2ccccc21 (centres unmarked) [Compound 184, Ethyl 4-[[3-(4-bromophenylureido)propyl](1,2,3,4-tetrahydro-1-naphthyl)amino]burylate]",100%
23,COC(=O)CCCN(CCCNC(=O)Nc1ccc(Cl)cc1)C1CCCc2ccccc21 (centres unmarked) [Compound 185],100%

row,Compound,Chemotaxis Assay 10 µM (inhibition %)
1,O=C(O)CN(CCCNC(=O)Nc1ccc(Br)cc1)C1CCCc2ccccc21 (centres unmarked) [Compound 186],69%
2,COC(=O)CCCN(CCCNC(=O)Nc1ccc(F)cc1)C1CCCc2ccccc21 (centres unmarked) [Compound 187],100%
3,O=C(O)CCCN(CCCNC(=O)Nc1ccc(F)cc1)C1CCCc2ccccc21 (centres unmarked) [Compound 188],100%
4,COC(=O)CCCN(CCCNC(=O)Nc1ccccc1Br)C1CCCc2ccccc21 (centres unmarked) [Compound 189],94%
5,O=C(O)CCCN(CCCNC(=O)Nc1ccccc1Br)C1CCCc2ccccc21 (centres unmarked) [Compound 190],90%
6,CCN(CCCNC(=O)Nc1ccccc1Br)C1CCCc2ccccc21 (centres unmarked) [Compound 191],100%
7,CCN(CCCNC(=O)Nc1ccccc1)C1CCCc2ccccc21 (centres unmarked) [Compound 192],100%
8,COC(=O)CCCN(CCCNC(=O)Nc1ccccc1Br)C(C)(C)c1ccccc1 [Compound 194],100%
9,CC(C)(c1ccccc1)N(CCCNC(=O)Nc1ccccc1Br)CCCC(=O)O [Compound 195],100%
10,COC(=O)CCCN(CCCNC(=O)Nc1cccc(Br)c1)C1CCCc2ccccc21 (centres unmarked) [Compound 198],100%
11,O=C(O)CCCN(CCCNC(=O)Nc1cccc(Br)c1)C1CCCc2ccccc21 (centres unmarked) [Compound 199],100%
12,COC(=O)CCCN(CCCNC(=O)Nc1ccc(Br)cc1C)C1CCCc2ccccc21 (centres unmarked) [Compound 200],100%
13,Cc1cc(Br)ccc1NC(=O)NCCCN(CCCC(=O)O)C1CCCc2ccccc21 (centres unmarked) [Compound 201],100%
14,CC(=O)OCCCCN(CCCNC(=O)Nc1ccc(Br)cc1)C1CCCc2ccccc21 (centres unmarked) [Compound 202],100%
15,O=C(NCCCN(CCCCCO)C1CCCc2ccccc21)Nc1ccc(Br)cc1 (centres unmarked) [Compound 205],97%
16,COC(=O)CCCN(CCCNC(=O)Nc1ccc(Br)cc1)C(C)(C)Cc1ccccc1 [Compound 206],64%
17,CC(C)(Cc1ccccc1)N(CCCNC(=O)Nc1ccc(Br)cc1)CCCC(=O)O [Compound 207],50%
18,CS(=O)(=O)NC(=O)CCCN(CCCNC(=O)Nc1ccc(Br)cc1)C1CCCc2ccccc21 (centres unmarked) [Compound 210],100%
19,COC(=O)CCCCN(CCCNC(=O)Nc1ccc(Br)cc1)C1CCCc2ccccc21 (centres unmarked) [Compound 213],92%
20,O=C(O)CCCCN(CCCNC(=O)Nc1ccc(Br)cc1)C1CCCc2ccccc21 (centres unmarked) [Compound 214],99%
21,CC(=O)OCCCN(CCCNC(=O)Nc1ccc(Br)cc1)C1CCCc2ccccc21 (centres unmarked) [Compound 215],89%
22,O=C(NCCCN(CCCO)C1CCCc2ccccc21)Nc1ccc(Br)cc1 (centres unmarked) [Compound 216],100%

# Same assay, conditions: U-937; 10 µM test compound; eotaxin 1 x 10^-9 M; CCR3/U937 cells (Table 3a)
row,Compound,inhibition at 10 µM
1,"O=C(O)CCCN(CCCNC(=O)Nc1ccc(Cl)cc1)C1CCCc2ccccc21 (centres unmarked) [Compound 171, 4-[[3-(4-Chlorophenylureido)propyl](1,2,3,4-tetrahydro-1-naphthyl)amino]butanoic acid]",100%
2,"O=C(O)CCCN(CCCNC(=O)Nc1ccc(Br)cc1)[C@@H]1CCc2ccccc21 [Compound 179, 4-[[3-(4-Bromophenylureido)propyl][(1R)-1-indanyl]amino]butanoic acid]",100%
3,"O=C(O)CCCN(CCCNC(=O)Nc1ccc(Br)cc1)[C@@H]1CCCc2ccccc21 [Compound 181, 4-[[3-(4-Bromophenylureido)propyl][(1R)-1,2,3,4-tetrahydro-1-naphthyl]amino]butanoic acid]",100%
4,"NC(=O)CCCN(CCCNC(=O)Nc1ccc(Br)cc1)C1CCCc2ccccc21 (centres unmarked) [Compound 193, 4-[[3-(4-Bromophenylureido)propyl](1,2,3,4-tetrahydro-1-naphthyl)amino]butanamide]",100%
5,"O=C(CCCN(CCCNC(=O)Nc1ccc(Br)cc1)C1CCCc2ccccc21)NS(=O)(=O)c1ccccc1 (centres unmarked) [Compound 196, 3-[[3-(4-Bromophenylureido)propyl](1,2,3,4-tetrahydro-1-naphthyl)amino]-1-[(phenylsulfonyl)carbamoyl]propane]",100%
6,"O=C(NCCCN(CCCCO)C1CCCc2ccccc21)Nc1ccc(Br)cc1 (centres unmarked) [Compound 203, 4-[[3-(4-Bromophenylureido)propyl](1,2,3,4-tetrahydro-1-naphthyl)amino]-1-butanol]",100%
7,"O=C(NCCCN(CCCc1nnnn1C(c1ccccc1)(c1ccccc1)c1ccccc1)C1CCCc2ccccc21)Nc1ccc(Br)cc1 (centres unmarked) [Compound 217, 3-[[3-(4-bromophenylureido)propyl](1,2,3,4-tetrahydro-1-naphthyl)amino]-1-[1-(triphenylmethyl)tetrazol-5-yl]propane]",87%
8,"O=C(NCCCN(CCCc1nnn[nH]1)C1CCCc2ccccc21)Nc1ccc(Br)cc1 (centres unmarked) [Compound 218, 3-[[3-(4-Bromophenylureido)propyl](1,2,3,4-tetrahydro-1-naphthyl)amino]-1-(1H-tetrazol-5-yl)propane]",99%

# — patent publication EP1200395B1, “UREA DERIVATIVES AS INHIBITORS OF CCR-3 RECEPTOR” (KIRIN BEER KABUSHIKI KAISHA, priority 1999, dated 2001)
